{"source": "patent EP1736150A2", "about": "(Pfizer, Inc., priority 1997, dated 1999)", "key": {"[1]": {"experiment": "Accelerated chemical stability (reverse phase HPLC)", "settings": "same accelerated stability conditions"}, "[2]": {"experiment": "Hygroscopicity (moisture microbalance)", "type": "physicochemical", "settings": "10% to 90% humidity, 25°C", "experimental": "A temperature of 25°C is maintained during all hygroscopicity measurements."}, "[3]": {"experiment": "Pharmacokinetics of sertraline delivered to various portions of the gastrointestinal tract (Example 3)", "type": "in vivo", "settings": "for AUC(0-t): human, plasma; for AUC(0-t) / AUC as percent of the AUC observed after dosing with oral tablets: 200 mg"}, "[4]": {"test_system": "healthy male human subjects", "experiment": "Side effects by visual analogue scales and emesis (Example 1)", "type": "in vivo"}, "[5]": {"experiment": "Plasma pharmacokinetics, bolus versus 15 hr divided dosing (Example 1)", "type": "in vivo", "settings": "human"}, "[6]": {"test_system": "healthy male human subjects", "experiment": "Side effects by visual analogue scales and emesis (Example 2)", "type": "in vivo"}, "[7]": {"test_system": "healthy male human subjects", "experiment": "Side effect score versus plasma concentration, PK/PD (Example 6)", "type": "in vivo"}, "[8]": {"experiment": "Plasma pharmacokinetics, bolus versus 7 hr divided dosing (Example 2)", "type": "in vivo", "settings": "human, fasted, mean; for AUC(0-t): po, 200 mg"}, "[9]": {"experiment": "Mechanical properties of compacts of the pure drug substance", "type": "physicochemical", "experimental": "The measurements of mechanical properties can be routinely accomplished using square compacts of the pure drug substance, in this case sertraline acetate and sertraline L-lactate. The measurements are made in triplicate and the compacts are prepared by uniaxial compression and triaxial decompression.\nSamples for the testing of mechanical properties are prepared according to standard procedures. To generate reliable data, such samples must be free of mechanical flaws, such as microcracks. Therefore, a specialized tablet press, prepared as described in U.S. Patent No. 4,880,373, is utilized. […] The apparent density of the compact is determined by measuring the […]. […] The true density of the powder is determined by helium pycnometry. Ordinarily, to achieve the desired solid fraction, trial compactions of carefully weighed powder samples must be performed and the solid fraction of the resultant compact is measured. […]\nDynamic indentation hardness, H0, of the compacts is measured with a pendulum impact apparatus , prepared as described in U.S. Patent No. 4,885,933. […] The time required for the pendulum to pass between two photocells of given distance apart is measured and the pendulum rebound height, hr is automatically calculated. […]"}, "[10]": {"settings": "GROUP A, Ileocecal Infusion, 200 mg as 2 mg/ml solution"}, "[11]": {"settings": "GROUP A, Stomach Infusion, 200 mg as 2 mg/ml solution"}, "[12]": {"settings": "GROUP B, Colonic Infusion (transverse colon), 200 mg as 2 mg/ml solution"}, "[13]": {"settings": "GROUP B, Duodenal Infusion, 200 mg as 2 mg/ml solution"}, "[14]": {"settings": "200 mg bolus dose group, individual subjects"}, "[15]": {"settings": "GROUP A (Bolus Dose) 200 mg, summed over 24 hr post-dose"}, "[16]": {"settings": "GROUP B (16 Divided Doses) 12.5 mg hourly, summed over 24 hr post-dose"}, "[17]": {"settings": "200 mg single dose (Group A), two 100 mg immediate release tablets (ZOLOFT), oral, fasted, mean"}, "[18]": {"settings": "GROUP B (8 Divided Doses) 25 mg hourly"}, "[19]": {"settings": "200 mg single dose, two 100 mg immediate release tablets (ZOLOFT), oral, four subjects with emesis not included"}}, "note": "Where “and” joins values, the source holds several entries; their conditions need not be identical. Equal entries are not always repeated."}
{"compound": "CN[C@H]1CC[C@@H](c2ccc(Cl)c(Cl)c2)c2ccccc21.N[C@@H](CC(=O)O)C(=O)O", "note": "[sertraline L-aspartate]", "values": [{"measurement": "purity of samples after stability testing", "setting": "[1]", "result": "greater than 99%"}, {"measurement": "hygroscopicity", "setting": "[2]", "result": "not hygroscopic"}]}
{"compound": "CN[C@H]1CC[C@@H](c2ccc(Cl)c(Cl)c2)c2ccccc21", "note": "[sertraline, (1S-cis)-4-(3,4-dichlorophenyl)-1,2,3,4-tetrahydro-N-methyl-1-naphthalenamine]", "values": [{"measurement": "CMAX", "setting": "[3]; [10]", "result": 27.3, "unit": "ng/mL"}, {"measurement": "TMAX", "setting": "[3]; [10]", "result": 5.0, "unit": "h"}, {"measurement": "TMAX", "setting": "[3]; GROUP A, Oral Tablet, 200 mg as two 100 mg tablets", "result": 7.0, "unit": "h"}, {"measurement": "CMAX", "setting": "[3]; GROUP A, Oral Tablet, 200 mg as two 100 mg tablets, 6 volunteers", "result": 39.9, "unit": "ng/mL"}, {"measurement": "CMAX", "setting": "[3]; [11]", "result": 35.6, "unit": "ng/mL"}, {"measurement": "TMAX", "setting": "[3]; [11]", "result": 7.0, "unit": "h"}, {"measurement": "CMAX", "setting": "[3]; [12]", "result": 10.9, "unit": "ng/mL"}, {"measurement": "TMAX", "setting": "[3]; [12]", "result": 4.4, "unit": "h"}, {"measurement": "CMAX", "setting": "[3]; [13]", "result": 48.8, "unit": "ng/mL"}, {"measurement": "TMAX", "setting": "[3]; [13]", "result": 3.7, "unit": "h"}, {"measurement": "TMAX", "setting": "[3]; GROUP B, Oral Tablet, 200 mg as two 100 mg tablets", "result": 6.7, "unit": "h"}, {"measurement": "CMAX", "setting": "[3]; GROUP B, Oral Tablet, 200 mg as two 100 mg tablets, 6 volunteers", "result": 44.7, "unit": "ng/mL"}, {"measurement": "AUC(0-t)", "setting": "[3]; [10]", "result": 727, "unit": "ng·h/mL"}, {"measurement": "AUC(0-t)", "setting": "[3]; [11]", "result": 923, "unit": "ng·h/mL"}, {"measurement": "AUC(0-t)", "setting": "[3]; [12]", "result": 179, "unit": "ng·h/mL"}, {"measurement": "AUC(0-t)", "setting": "[3]; [13]", "result": 1270, "unit": "ng·h/mL"}, {"measurement": "AUC(0-t)", "setting": "[3]; po, GROUP A, Oral Tablet, 200 mg as two 100 mg tablets", "result": 1170, "unit": "ng·h/mL"}, {"measurement": "AUC(0-t)", "setting": "[3]; po, GROUP B, Oral Tablet, 200 mg as two 100 mg tablets", "result": 1150, "unit": "ng·h/mL"}, {"measurement": "AUC as percent of the AUC observed after dosing with oral tablets", "setting": "[3]; infusion into the duodenal region", "result": 110, "unit": "%"}, {"measurement": "AUC as percent of the AUC observed after dosing with oral tablets", "setting": "[3]; infusion into the ileocecal region of the small intestine", "result": 62, "unit": "%"}, {"measurement": "AUC as percent of the AUC observed after dosing with oral tablets", "setting": "[3]; infusion into the stomach", "result": 79, "unit": "%"}, {"measurement": "AUC as percent of the AUC observed after dosing with oral tablets", "setting": "[3]; infusion into the transverse colon", "result": 16, "unit": "%"}, {"measurement": "subjects with emesis", "setting": "[4]; 200 mg bolus dose group (15 subjects)", "result": "Three"}, {"measurement": "time of emesis", "setting": "[4]; [14]", "result": "4.25 h and 11.2 h and 7.6 h"}, {"measurement": "emetic episodes", "setting": "[4]; 15 hr divided dose regimen (16 x 12.5 mg)", "result": "no emetic episodes"}, {"measurement": "Mean cumulative score: Abdominal Cramping", "setting": "[4]; [15]", "result": 3.1}, {"measurement": "Mean cumulative score: Diarrhea", "setting": "[4]; [15]", "result": 3.9}, {"measurement": "Mean cumulative score: Nausea", "setting": "[4]; [15]", "result": 17.5}, {"measurement": "Mean cumulative score: Regurgitation", "setting": "[4]; [15]", "result": 4.0}, {"measurement": "Mean cumulative score: Tremor", "setting": "[4]; [15]", "result": 7.9}, {"measurement": "Mean cumulative score: Urgency to Defecate", "setting": "[4]; [15]", "result": 3.1}, {"measurement": "Mean cumulative score: Abdominal Pain", "setting": "[4]; GROUP A (Bolus Dose) 200 mg, visual analogue scores summed over 24 hr post-dose", "result": 2.7}, {"measurement": "Mean cumulative score: Abdominal Cramping", "setting": "[4]; [16]", "result": 0.1}, {"measurement": "Mean cumulative score: Abdominal Pain", "setting": "[4]; [16]", "result": 0.1}, {"measurement": "Mean cumulative score: Diarrhea", "setting": "[4]; [16]", "result": 0.2}, {"measurement": "Mean cumulative score: Nausea", "setting": "[4]; [16]", "result": 2.6}, {"measurement": "Mean cumulative score: Regurgitation", "setting": "[4]; [16]", "result": 0.3}, {"measurement": "Mean cumulative score: Tremor", "setting": "[4]; [16]", "result": 1.7}, {"measurement": "AUC(0-t)", "setting": "[5]; [17]", "result": 1650, "unit": "ng·h/mL"}, {"measurement": "CMAX", "setting": "[5]; [17]", "result": 74, "unit": "ng/mL"}, {"measurement": "TMAX", "setting": "[5]; [17]", "result": 6, "unit": "h"}, {"measurement": "AUC(0-t)", "setting": "[5]; po", "result": 1230, "unit": "ng·h/mL"}, {"measurement": "time of emesis", "setting": "[6]; [14]", "result": "2.6 hr and 2.8 hr (2×) and 3.8 hr"}, {"measurement": "emetic events", "setting": "[6]; 7 hr divided dose group, 8 x 25 mg (n=16)", "result": 1}, {"measurement": "time of emesis", "setting": "[6]; 7 hr divided dose regimen, one subject", "result": 12.6, "unit": "h"}, {"measurement": "Mean cumulative score: Dizziness", "setting": "[6]; GROUP A (Bolus Dose) 200 mg", "result": 10.4}, {"measurement": "Mean cumulative score: Regurgitation", "setting": "[6]; GROUP A (Bolus Dose) 200 mg", "result": 3.9}, {"measurement": "Mean cumulative score: Tremor", "setting": "[6]; GROUP A (Bolus Dose) 200 mg", "result": 8.9}, {"measurement": "Mean cumulative score: Dizziness", "setting": "[6]; [18]", "result": 4.8}, {"measurement": "Mean cumulative score: Regurgitation", "setting": "[6]; [18]", "result": 0.1}, {"measurement": "Mean cumulative score: Tremor", "setting": "[6]; [18]", "result": 2.7}, {"measurement": "time at which the maximum diarrhea score was reached", "setting": "[7]; Study 1, 200 mg bolus dose, post-dose", "result": 3, "unit": "h"}, {"measurement": "time of emesis", "setting": "[7]; Study II, 200 mg dose group, individual subjects", "result": "2.6 hr and 2.8 hr (2×) and 3.8 hr"}, {"measurement": "CMAX", "setting": "[8]; [19]", "result": 75, "unit": "ng/mL"}, {"measurement": "TMAX", "setting": "[8]; [19]", "result": 5.4, "unit": "h"}, {"measurement": "AUC(0-t)", "setting": "[8]; 25 mg per hr for 7 hr, eight 25 mg doses as solution", "result": 1440, "unit": "ng·h/mL"}, {"measurement": "AUC(0-t)", "setting": "[8]; 200 mg single dose, two 100 mg immediate release tablets (ZOLOFT), four subjects with emesis not included", "result": 1740, "unit": "ng·h/mL"}]}
{"compound": "sertraline acetate", "values": [{"measurement": "purity of samples after stability testing", "setting": "[1]", "result": "greater than 99%"}, {"measurement": "hygroscopicity", "setting": "[2]", "result": "not hygroscopic"}, {"measurement": "ductility (assessment in words)", "setting": "[9]", "result": "high ductility"}, {"measurement": "elastic modulus (assessment in words)", "setting": "[9]", "result": "relatively low elastic modulus"}]}
